IC50 and GI50 data for 11 molecules are collected here from patent US20260055079A1, “PHTHALAZINONE COMPOUNDS AS PARP7 INHIBITORS” (AZKARRA THERAPEUTICS, INC., priority 2022, published 2026).

Read-outs that look alike come from different tables or passages of the source.

One assay addresses His-GST-PARP7 (Homo sapiens (Human), UniProt Q7Z3E1). Description: PARP7 biochemical assay. To be noted: read-out: PARP7 IC50.
Another assay deals with PARP2 (Homo sapiens (Human), UniProt Q9UGN5). Description: PARP2 biochemical assay.
The subject of assay [1] is HARA (human lung squamous cell carcinoma) cells. Description: Cell proliferation assay (CellTiter-Glo), HARA. Type of assay: cell-based. The note with it: Homo sapiens, 144 h; 6 days, CellTiter-Glo; read-out: HARA GI50.
Assay [2] relates to NCI-H1373 (human lung adenocarcinoma) cells. Kind of assay: Cell proliferation assay (CellTiter-Glo), NCI-H1373. The note with it: Homo sapiens, NCI-H1373, 144 h; 6 days, CellTiter-Glo; read-out: NCI-H1373 GI50. It is filed as cell-based. In general terms: In ATP-based viability assays light output follows the ATP content of the culture.

Chain of PARP2 (Q9UGN5 whole entry): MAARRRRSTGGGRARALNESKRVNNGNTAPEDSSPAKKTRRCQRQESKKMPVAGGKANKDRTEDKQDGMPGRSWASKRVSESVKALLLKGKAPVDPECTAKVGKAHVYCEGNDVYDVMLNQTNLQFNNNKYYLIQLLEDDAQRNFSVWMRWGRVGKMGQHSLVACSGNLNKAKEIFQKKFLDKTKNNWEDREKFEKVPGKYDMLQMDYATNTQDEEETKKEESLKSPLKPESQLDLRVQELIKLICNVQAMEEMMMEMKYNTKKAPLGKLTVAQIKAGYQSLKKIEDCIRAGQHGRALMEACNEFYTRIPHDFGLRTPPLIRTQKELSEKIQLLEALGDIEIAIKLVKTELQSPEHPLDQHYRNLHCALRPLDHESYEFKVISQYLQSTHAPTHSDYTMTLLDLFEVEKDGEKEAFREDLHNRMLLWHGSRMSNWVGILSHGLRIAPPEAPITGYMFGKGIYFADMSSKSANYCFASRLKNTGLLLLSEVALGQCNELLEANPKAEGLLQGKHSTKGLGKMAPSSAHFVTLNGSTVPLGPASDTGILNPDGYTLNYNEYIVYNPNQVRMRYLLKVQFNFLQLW
Chain of His-GST-PARP7 (Q7Z3E1 whole entry): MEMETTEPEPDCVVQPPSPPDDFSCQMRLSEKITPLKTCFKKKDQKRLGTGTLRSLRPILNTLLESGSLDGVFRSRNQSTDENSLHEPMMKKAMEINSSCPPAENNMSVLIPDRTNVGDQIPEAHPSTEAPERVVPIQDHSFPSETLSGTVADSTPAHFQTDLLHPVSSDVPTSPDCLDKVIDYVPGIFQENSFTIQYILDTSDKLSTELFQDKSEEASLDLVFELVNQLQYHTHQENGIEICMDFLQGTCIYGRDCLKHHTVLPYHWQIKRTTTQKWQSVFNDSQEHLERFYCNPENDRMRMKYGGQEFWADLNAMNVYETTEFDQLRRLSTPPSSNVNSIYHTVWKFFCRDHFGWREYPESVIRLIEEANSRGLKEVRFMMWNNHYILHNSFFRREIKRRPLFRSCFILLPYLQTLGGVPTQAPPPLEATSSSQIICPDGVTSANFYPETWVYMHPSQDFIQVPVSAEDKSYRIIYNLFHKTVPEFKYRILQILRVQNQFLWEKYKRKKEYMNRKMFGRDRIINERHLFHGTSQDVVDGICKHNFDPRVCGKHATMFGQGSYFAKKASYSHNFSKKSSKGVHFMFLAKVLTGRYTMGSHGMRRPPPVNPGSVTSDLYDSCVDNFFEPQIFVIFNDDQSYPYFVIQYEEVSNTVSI

Usually IC50 stands for the concentration at which inhibition is half-maximal. With “4-(4-Fluoro-3-(4-(5-(trifluoromethyl)pyrimidin-2-yl)piperazine-1-carbonyl)benzyl)-6-isobutylphthalazin-1(2H)-one [Example 44]”, the values for the IC50 on His-GST-PARP7 and at PARP2 (read-out: PARP2 IC50) were less than 50 nM and 50 to 100 nM, respectively.
As to “6-(4-(2-Fluoro-5-((4-oxo-7-(prop-2-yn-1-yloxy)-3,4-dihydrophthalazin-1-yl)methyl)benzoyl)piperazin-1-yl)nicotinonitrile [Example 26]”, the figures for the IC50 on His-GST-PARP7 and on PARP2 (read-out: PARP2 IC50) were less than 50 nM and 100 to 500 nM, respectively.
On to `N#Cc1ccc(N2CCN(C(=O)c3cc(Cc4n[nH]c(=O)c5ccc(CCC(F)(F)F)cc45)ccc3F)CC2)nc1` [Example 25, 6-(4-(2-Fluoro-5-((4-oxo-7-(3,3,3-trifluoropropyl)-3,4-dihydrophthalazin-1-yl)methyl)benzoyl)piperazin-1-yl)nicotinonitrile], for which the IC50 on PARP2 (read-out: PARP2 IC50) was 100 to 500 nM.
Regarding `N#Cc1ccc(N2CCN(C(=O)c3cc(Cc4n[nH]c(=O)c5ccc(/C=C/C(F)(F)F)cc45)ccc3F)CC2)nc1` [Example 27, (E)-6-(4-(2-Fluoro-5-((4-oxo-7-(3,3,3-trifluoroprop-1-enyl)-3,4-dihydrophthalazin-1-yl)methyl)benzoyl)piperazin-1-yl)nicotinonitrile], the IC50 against PARP2 was 50 to 100 nM.
In the case of `CCc1ccc2c(=O)[nH]nc(Cc3ccc(F)c(C(=O)N4CCN(c5ncc(C(F)(F)F)cn5)CC4)c3)c2c1` [Example 43, 6-Ethyl-4-(4-fluoro-3-(4-(5-(trifluoromethyl)pyrimidin-2-yl)piperazine-1-carbonyl)benzyl)phthalazin-1(2H)-one], the IC50 on PARP2 (read-out: PARP2 IC50) fell in the range of 100 to 500 nM.
What is called GI50 is the concentration giving 50% growth inhibition. On to `O=C(c1cc(Cc2n[nH]c(=O)c3ccc(OC4CCC4)cc23)ccc1F)N1CCN(c2ccc(C(F)(F)F)cn2)CC1` [Example 155, 6-cyclobutoxy-4-(4-fluoro-3-(4-(5-(trifluoromethyl)pyridin-2-yl)piperazine-1-carbonyl)benzyl)phthalazin-1(2H)-one], for which the GI50 in assay [1] was 1000 to 5000 nM; in assay [2], less than 100 nM. Further, the IC50 at His-GST-PARP7 is less than 50 nM.
On to `O=C(c1cc(Cc2n[nH]c(=O)c3ccc(OC4CCC4)cc23)ccc1F)N1CCN(c2cnc(C(F)(F)F)cn2)CC1` [Example 160, 6-cyclobutoxy-4-(4-fluoro-3-(4-(5-(trifluoromethyl)pyrazin-2-yl)piperazine-1-carbonyl)benzyl)phthalazin-1(2H)-one], for which the results for the GI50 in assay [1] and in assay [2] were 1000 to 5000 nM and less than 100 nM, respectively. The IC50 on His-GST-PARP7 was less than 50 nM.
Consider `O=C(c1cc(Cc2n[nH]c(=O)c3ccc(OC4CCC4)cc23)ccc1F)N1CCN(c2ncc(C3CC3)cn2)CC1` [Example 162, 6-cyclobutoxy-4-(3-(4-(5-cyclopropylpyrimidin-2-yl)piperazine-1-carbonyl)-4-fluorobenzyl)phthalazin-1(2H)-one], for which the GI50 in assay [1] was 100 to 1000 nM; in assay [2] it was less than 100 nM. On His-GST-PARP7, the IC50 was less than 50 nM.
Regarding `CC(CC(=O)N1CCN(c2ccc(C#N)cn2)CC1)NCc1n[nH]c(=O)c2ccc(OC3CC3)cc12` (stereo not shown) [Example 196, 6-(4-(3-(((7-Cyclopropoxy-4-oxo-3,4-dihydrophthalazin-1-yl)methyl)amino)butanoyl)piperazin-1-yl)nicotinonitrile], the concentration for 50% growth inhibition (GI50) in assay [1] and in assay [2] was 1000 to 5000 nM in each case. Further, the IC50 at His-GST-PARP7 was less than 50 nM.
Regarding `N#Cc1ccc(N2CCN(c3noc4c(Cc5n[nH]c(=O)c6ccc(OC7CCC7)cc56)cccc34)CC2)nc1` [Example 208, 6-(4-(7-((7-Cyclobutoxy-4-oxo-3,4-dihydrophthalazin-1-yl)methyl)benzo[d]isoxazol-3-yl)piperazin-1-yl)nicotinonitrile], the GI50 in assay [1] and in assay [2] was 1000 to 5000 nM each time. Besides, the IC50 at His-GST-PARP7 was in the range of 100 to 500 nM.
On to `N#Cc1ccc(N2CCN(c3noc4ccc(Cc5n[nH]c(=O)c6ccc(OC7CCC7)cc56)cc34)CC2)nc1` [Example 211, 6-(4-(5-((7-cyclobutoxy-4-oxo-3,4-dihydrophthalazin-1-yl)methyl)benzo[d]isoxazol-3-yl)piperazin-1-yl)nicotinonitrile], for which the GI50 in assay [1] and in assay [2] was 1000 to 5000 nM in each case. The IC50 on His-GST-PARP7 lay within 100 to 500 nM.
